# Results published in patent publication US20230063538A1, “LARGE SCALE PROCESS” (GALECTO BIOTECH AB, priority 2019, published 2023).
# Assay: Solid-state characterisation of polymorphic Form 1 (hygroscopicity)
# Format: physicochemical
# Conditions: crystalline polymorphic Form 1 of the compound of formula (I)
compound,measurement,value
"OC[C@H]1O[C@H](Sc2cncc(Br)c2)[C@H](O)[C@@H](n2cc(-c3cc(F)c(F)c(F)c3)nn2)[C@H]1O [Form 1, 5-Bromopyridin-3-yl 3-deoxy-3-[4-(3,4,5-trifluorophenyl)-1H-1,2,3-triazol-1-yl]-1-thio-α-D-galactopyranoside]",hygroscopicity,not hygroscopic
